From US20210261642A1, “SOLUBILITY OF GLP-1 PEPTIDE” (Novo Nordisk A/S, priority 2017, published 2021)

Assay: Assay (I): Determination of Solubility (96-well plate, pH 3.0-11.0, organic solvent 0-70% w/w, UV absorption at 280 nm)
Type: physicochemical
Conditions: Method 1
Procedure: Assay (I): Determination of Solubility
96-Well Plate Preparation
96-well plates containing target peptide in a solid form were prepared in one of two ways:
Method 1 (evaporation): Addition of 100 μl stock solution of said peptide at a concentration of 4-6 mg/ml to each well of a 96-well half area plate (150 μl well size). Subsequently the solvent was evaporated by applying a vacuum until the solvent was completely removed.
Method 2 (precipitation): Addition of a certain volume of a stock solution of said peptide containing to each well of a 96-well half area plate followed by the addition of a certain volume of concentrated phosphoric acid to obtain a pH of 4.6 followed by addition of a certain volume of ethanol resulting in a final ethanol concentration of 20% v/v. Subsequently the plate was stored at 4° C. for 1 h and then centrifuged at 4,000 rpm for 20 min. Finally the supernatant was removed. The concentration of the stock solution was chosen in a way that the final amount of peptide after supernatant removal was >0.4 mg per well.
In both cases the stock solution was prepared by adding de-ionized water to a certain amount of powder of said peptide followed by a stepwise addition of small amounts of a concentrated sodium hydroxide solution until said peptide was completely in solution.
To determine solubility of a target peptide at different pH and organic solvent concentrations, two different buffer systems were used in independent experiments to cover the whole range from pH 3.0 to pH 11.0. Buffer system 1 covers pH 3.0-7.5 and buffer system 2 covers pH 7.5-11.0. For each buffer system 96 different solvent compositions were premixed in the following way: • 1. A low pH buffer (adjusted to either pH 3.0 or pH 7.5) and a high pH buffer (adjusted to either pH 7.5 or pH 11.0) were mixed at 8 different ratios to obtain values between pH 3.0 and pH 7.5 or pH 7.5 and pH 11.0, respectively. The total volume after mixing was 300 μl. • 2. 12 different amounts of organic solvent were then added to these buffers to obtain organic solvent (e.g. ethanol) concentrations between 0 and 70% w/w. • 3. Water was then added to obtain a total weight of 1.0 g of solvent in each well.
After preparing the 96 different solvent systems, 100 μl of each system was transferred to the 96-well plate containing the solid form of the target peptide (prepared as described in the section “96-well plate preparation”). The plate was then stored at a given temperature (between 5° C. and 70° C.) for a given time on a rotating shaker set to 400 rpm. At regular time intervals the plate was centrifuged (4,000 rpm for 10 min) and a 10 μl sample was taken from each well. The samples were then analysed by UV absorption at 280 nm for peptide quantification. Peptide concentration results are given as UV absorption at 280 nm of the sample subtracted UV absorption at 280 nm of a well comprising 10 μl water.
The buffers used were as follows: • Buffer system 1 (for the pH range from pH 3.0-7.5)
• Buffer system 2 (for the pH ranae from pH 7.5-11.0)
Solubility of liraglutide was determined using Assay (I) described herein. Liraglutide was prepared using Method 1 (evaporation) or Method 2 (precipitation) as described in subsection “96-well plate preparation”.

Peptide concentration after 5 min (MeCN 0.0% w/w, pH 3.0, RT): 0.1 mg/mL
Peptide concentration after 180 min (MeCN 0.0% w/w, pH 3.0, RT): 0.1 mg/mL
Peptide concentration after 5 min (MeCN 0.0% w/w, pH 3.6, RT): 0.1 mg/mL
Peptide concentration after 180 min (MeCN 0.0% w/w, pH 3.6, RT): 0.1 mg/mL
Peptide concentration after 5 min (MeCN 0.0% w/w, pH 4.3, 5° C.): 0.1 mg/mL
Peptide concentration after 180 min (MeCN 0.0% w/w, pH 4.3, 5° C.): 0.1 mg/mL
Peptide concentration after 5 min (MeCN 0.0% w/w, pH 4.3, RT): 0.1 mg/mL
Peptide concentration after 180 min (MeCN 0.0% w/w, pH 4.3, RT): 0.1 mg/mL
Peptide concentration after 24 h (MeCN 0.0% w/w, pH 4.3, RT): 0.0 mg/mL
Peptide concentration after 5 min (MeCN 0.0% w/w, pH 4.9, 5° C.): 0.2 mg/mL
Peptide concentration after 180 min (MeCN 0.0% w/w, pH 4.9, 5° C.): 0.1 mg/mL
Peptide concentration after 5 min (MeCN 0.0% w/w, pH 5.6, 5° C.): 0.1 mg/mL
Peptide concentration after 180 min (MeCN 0.0% w/w, pH 5.6, 5° C.): 0.1 mg/mL
Peptide concentration after 24 h (MeCN 0.0% w/w, pH 5.6, 5° C.): 0.1 mg/mL
Peptide concentration after 24 h (MeCN 0.0% w/w, pH 5.6, RT): 0.0 mg/mL
Peptide concentration after 5 min (MeCN 0.0% w/w, pH 6.2, 5° C.): 0.1 mg/mL
Peptide concentration after 180 min (MeCN 0.0% w/w, pH 6.2, 5° C.): 0.1 mg/mL
Peptide concentration after 5 min (MeCN 0.0% w/w, pH 6.9, 5° C.): 0.4 mg/mL
Peptide concentration after 180 min (MeCN 0.0% w/w, pH 6.9, 5° C.): 2.0 mg/mL
Peptide concentration after 24 h (MeCN 0.0% w/w, pH 6.9, 5° C.): >4.0 mg/mL
Peptide concentration after 24 h (MeCN 0.0% w/w, pH 6.9, RT): >4.0 mg/mL
Peptide concentration after 5 min (MeCN 0.0% w/w, pH 7.5, 5° C.): 0.6 mg/mL
Peptide concentration after 180 min (MeCN 0.0% w/w, pH 7.5, 5° C.): 2.6 mg/mL
Peptide concentration after 24 h (MeCN 0.0% w/w, pH 7.5, 5° C.): >4.0 mg/mL
Peptide concentration after 24 h (MeCN 0.0% w/w, pH 7.5, RT): >4.0 mg/mL
Peptide concentration after 5 min (MeCN 0.0% w/w, pH 8.0, 5° C.): 0.5 mg/mL
Peptide concentration after 180 min (MeCN 0.0% w/w, pH 8.0, 5° C.): 2.1 mg/mL
Peptide concentration after 24 h (MeCN 0.0% w/w, pH 8.0, 5° C.): >4.0 mg/mL
Peptide concentration after 5 min (MeCN 0.0% w/w, pH 8.5, 5° C.): 0.3 mg/mL
Peptide concentration after 180 min (MeCN 0.0% w/w, pH 8.5, 5° C.): 2.9 mg/mL
Peptide concentration after 24 h (MeCN 0.0% w/w, pH 8.5, 5° C.): >4.0 mg/mL
Peptide concentration after 5 min (MeCN 0.0% w/w, pH 9.0, 5° C.): 0.3 mg/mL
Peptide concentration after 180 min (MeCN 0.0% w/w, pH 9.0, 5° C.): 2.8 mg/mL
Peptide concentration after 24 h (MeCN 0.0% w/w, pH 9.0, 5° C.): >4.0 mg/mL
Peptide concentration after 5 min (MeCN 0.0% w/w, pH 9.5, 5° C.): 0.4 mg/mL
Peptide concentration after 180 min (MeCN 0.0% w/w, pH 9.5, 5° C.): 2.6 mg/mL
Peptide concentration after 24 h (MeCN 0.0% w/w, pH 9.5, 5° C.): >4.0 mg/mL
Peptide concentration after 5 min (MeCN 0.0% w/w, pH 10.0, 5° C.): 0.4 mg/mL
Peptide concentration after 180 min (MeCN 0.0% w/w, pH 10.0, 5° C.): 3.1 mg/mL
Peptide concentration after 24 h (MeCN 0.0% w/w, pH 10.0, 5° C.): >4.0 mg/mL
Peptide concentration after 5 min (MeCN 0.0% w/w, pH 10.5, 5° C.): 0.5 mg/mL
Peptide concentration after 180 min (MeCN 0.0% w/w, pH 10.5, 5° C.): 2.9 mg/mL
Peptide concentration after 24 h (MeCN 0.0% w/w, pH 10.5, 5° C.): >4.0 mg/mL
Peptide concentration after 5 min (MeCN 0.0% w/w, pH 11.0, 5° C.): 0.2 mg/mL
Peptide concentration after 180 min (MeCN 0.0% w/w, pH 11.0, 5° C.): 1.6 mg/mL
Peptide concentration after 24 h (MeCN 0.0% w/w, pH 11.0, 5° C.): >4.0 mg/mL
Peptide concentration after 5 min (MeCN 6.4% w/w, pH 3.0, 5° C.): 0.1 mg/mL
Peptide concentration after 180 min (MeCN 6.4% w/w, pH 3.0, 5° C.): 0.2 mg/mL
Peptide concentration after 24 h (MeCN 6.4% w/w, pH 3.0, 5° C.): 0.3 mg/mL
Peptide concentration after 24 h (MeCN 6.4% w/w, pH 3.0, RT): 0.1 mg/mL
Peptide concentration after 5 min (MeCN 6.4% w/w, pH 3.6, 5° C.): 0.1 mg/mL
SMILES: CCCCCCCCCCCCCCCC(=O)N[C@@H](CCC(=O)NCCCC[C@H](NC(=O)[C@H](C)NC(=O)[C@H](C)NC(=O)[C@H](CCC(N)=O)NC(=O)CNC(=O)[C@H](CCC(=O)O)NC(=O)[C@H](CC(C)C)NC(=O)[C@H](Cc1ccc(O)cc1)NC(=O)[C@H](CO)NC(=O)[C@H](CO)NC(=O)[C@@H](NC(=O)[C@H](CC(=O)O)NC(=O)[C@H](CO)NC(=O)[C@@H](NC(=O)[C@H](Cc1ccccc1)NC(=O)[C@@H](NC(=O)CNC(=O)[C@H](CCC(=O)O)NC(=O)[C@H](C)NC(=O)[C@@H](N)Cc1cnc[nH]1)[C@@H](C)O)[C@@H](C)O)C(C)C)C(=O)N[C@@H](CCC(=O)O)C(=O)N[C@@H](Cc1ccccc1)C(=O)N[C@H](C(=O)N[C@@H](C)C(=O)N[C@@H](Cc1c[nH]c2ccccc12)C(=O)N[C@@H](CC(C)C)C(=O)N[C@H](C(=O)N[C@@H](CCCNC(=N)N)C(=O)NCC(=O)N[C@@H](CCCNC(=N)N)C(=O)NCC(=O)O)C(C)C)[C@@H](C)CC)C(=O)O [liraglutide, Arg34,Lys26-(N-epsilon-(gamma-L-glutamyl(N-alfa-hexadecanoyl)))-GLP-1(7-37)]
